“And” between values parts separate entries of the source, which are not always exact repeats. Identical values can stand only once.
System: K98450-129-R-PDC complex spheroid growth, percent test/control
Test: Anticancer human tumor K98450-129-R-PDC patient-derived colon adenocarcinoma cell line growth inhibition [RAS]
Conditions: for viability, T/C: stronger effect = lower value
Source text: RAS pathway inhibitors in Combinations in Complex Spheroids
A high-throughput screen of multi-cell type tumor spheroids was designed to identify active combinations of RAS pathway inhibitors and targeted small molecules. Complex spheroids include a stromal component modeled by human endothelial cells (HUVEC) and fibroblasts modeled by human mesenchymal stem cells (MSCs). The concentration ranges selected for each drug and investigational agent were based upon clinically achievable concentrations if the clinical Cmax of the agent was known.
Compounds. The drugs and investigational agents: abemaciclib (NSC768073), cobimetinib (NSC768068), divarasib (GDC6063, NSC841802), docetaxel (NSC628503), GDC-1971 (RLY-1971, NSC841576), gemcitabine (NSC613327), inavolisib (NSC800729), ipatasertib (NSC767898), KB-0742 (NSC834161), MRTX-1133 (NSC836407), osimertinib (NSC779217), RMC-4630 (NSC839698), RMC-6236 (NSC851965), RMC-6291 (NSC852671), Ro-3306 (NSC812927), sapanisertib (NSC764658), SN-38 (NSC673596), staurosporine (NSC755774), SY5609 (NSC837396), and tovorafenib (DAY101, NSC766906), were obtained from the National Cancer Institute (NCI) Developmental Therapeutics Program Chemical Repository. The FDA-approved anticancer drug set is available from the NCI Developmental Therapeutics Program. […] The stock solutions were prepared in dimethyl sulfoxide (DMSO, Sigma-Aldrich, St. Louis, MO, cat. D2650) at 800-fold the tested concentration and stored at -70 degrees C prior to their use. All drugs and investigational agents were tested over a range starting from a high concentration at or near the clinical Cmax and decreasing in half-log increments. If the clinical Cmax for an agent had not been determined, the highest concentration tested was 10 microM.
Cell Culture. All cells were maintained in an incubator at 37 degrees C and 5% CO2 with 95% humidity. The PDC lines were cultured according to standard operating procedures established by the NCI PDMR. All PDCs were thawed and cultured in Matrigel-coated flasks prepared with a working solution of 1X Ham's F-12 nutrient mix, without supplementation (Invitrogen, Waltham, MA, cat. 11765054), 100 U/mL penicillin-streptomycin (Invitrogen, cat. 15140122), and 2.5% Matrigel (Corning Inc., Corning, NY, cat. 354248) for the first three passages. The 362531-283-R-J2-PDC and 782815-120-R-J1-PDC lines were cultured in 6C/Colon 1B media, which includes advanced DMEM/F-12 (Thermo Fisher Scientific, cat. 12634028), 10 mM HEPES (Thermo Fisher Scientific, cat. 15630080), 1X GlutaMAX supplement (Thermo Fisher Scientific, cat. 35050061), 0.1 mg/mL primocin (InvivoGen, San Diego, CA, cat. ant-pm-2), 10% defined fetal bovine serum, heat inactivated (HyClone Laboratories Inc., Logan, UT, cat. SH30070.03HI), 50% L-WRN conditioned media (ATCC, cat. CRL-3276), 1.25 mM N-Acetyl-L-cysteine (Sigma-Aldrich, cat. A9165), 10 mM nicotinamide (Sigma-Aldrich, cat. N0636), 1X B-27 supplement (Thermo Fisher Scientific, cat. 17504044), 1X N-2 supplement (Thermo Fisher Scientific, cat. 17502048), 50 ng/mL human EGF (Thermo Fisher Scientific, cat. PHG0311), and 10 microM Y-27632 dihydrochloride (Tocris Bioscience, cat. 1254). The K12877-001-R-J1-PDC line was cultured in 6I media, which includes all 6C/Colon 1B media plus 10 ng/mL human FGF-10 (PeproTech, cat. 100-26), 1 ng/mL human FGF-2 (PeproTech, cat. 100-18B), 1 µM prostaglandin E2 (Tocris Bioscience, cat. 2296), […] hydrocortisone (Sigma-Aldrich, cat. H4001), and […] bovine insulin (Sigma-Aldrich, cat. I6634). The K86415-001-R-J1-PDC line was cultured in 6D media, which includes all 6C/Colon 1B media components minus the L-WRN conditioned media. The 485176-168-R4-J1-PDC was cultured in PANC media, which includes all 6C/Colon 1B media plus 100 ng/mL human FGF-10 (PeproTech, cat. 100-26), 500 nM SB-431542 (Selleckchem, cat. S1067), and 10 nM gastrin (Tocris Bioscience, cat. 3006). […]
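Further: spheroids exposed to agents for seven days before the viability readout.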
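Wherever viability, T/C is given: luminescence used as a proxy for viable cell amount.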

C=CC(=O)Nc1cc(Nc2nccc(-c3cn(C)c4ccccc34)n2)c(OC)cc1N(C)CCN(C)C + C#Cc1c(F)ccc2cc(O)cc(-c3ncc4c(N5CC6CCC(C5)N6)nc(OCC56CCCN5CC(F)C6)nc4c3F)c12
IC50 (curve of first compound, second compound 0.0316 µM): 622 nM | IC50 (curve of first compound, second compound 0.1 µM): 637 nM | IC50 (curve of first compound, second compound 0.316 µM): 584 nM | IC50 (curve of first compound, second compound 1 µM): 468 nM | IC50 (curve of first compound, second compound 3.16 µM): 330 nM | IC50 (curve of first compound, second compound 10 µM): 193 nM | viability, T/C (second compound 0.0316 µM, first compound 0.00316 µM): 107% | viability, T/C (second compound 0.0316 µM, first compound 0.01 µM): 112% | viability, T/C (second compound 0.0316 µM, first compound 0.0316 µM): 106% | viability, T/C (second compound 0.0316 µM, first compound 0.1 µM): 100% | viability, T/C (second compound 0.0316 µM, first compound 0.316 µM): 69.4% | viability, T/C (second compound 0.0316 µM, first compound 1 µM): 36.4% | viability, T/C (second compound 0.1 µM, first compound 0.00316 µM): 107% | viability, T/C (second compound 0.1 µM, first compound 0.01 µM): 100% | viability, T/C (second compound 0.1 µM, first compound 0.0316 µM): 103% | viability, T/C (second compound 0.1 µM, first compound 0.1 µM): 101% | viability, T/C (second compound 0.1 µM, first compound 0.316 µM): 79.6% | viability, T/C (second compound 0.1 µM, first compound 1 µM): 30.9% | viability, T/C (second compound 0.316 µM, first compound 0.00316 µM): 112% | viability, T/C (second compound 0.316 µM, first compound 0.01 µM): 106% | viability, T/C (second compound 0.316 µM, first compound 0.0316 µM): 97.9% | viability, T/C (second compound 0.316 µM, first compound 0.1 µM): 95.8% | viability, T/C (second compound 0.316 µM, first compound 0.316 µM): 78.6% | viability, T/C (second compound 0.316 µM, first compound 1 µM): 26% | viability, T/C (second compound 1 µM, first compound 0.00316 µM): 105% | viability, T/C (second compound 1 µM, first compound 0.01 µM): 105% | viability, T/C (second compound 1 µM, first compound 0.0316 µM): 92.6% | viability, T/C (second compound 1 µM, first compound 0.1 µM): 95% | viability, T/C (second compound 1 µM, first compound 0.316 µM): 66.3% | viability, T/C (second compound 1 µM, first compound 1 µM): 16.6% | viability, T/C (second compound 3.16 µM, first compound 0.00316 µM): 93.7% | viability, T/C (second compound 3.16 µM, first compound 0.01 µM): 94.3% | viability, T/C (second compound 3.16 µM, first compound 0.0316 µM): 94.6% | viability, T/C (second compound 3.16 µM, first compound 0.1 µM): 89.7% | viability, T/C (second compound 3.16 µM, first compound 0.316 µM): 51.5% | viability, T/C (second compound 3.16 µM, first compound 1 µM): 11.5% | viability, T/C (second compound 10 µM, first compound 0.00316 µM): 91.9% | viability, T/C (second compound 10 µM, first compound 0.01 µM): 85.3% | viability, T/C (second compound 10 µM, first compound 0.0316 µM): 90.1% | viability, T/C (second compound 10 µM, first compound 0.1 µM): 79.3% | viability, T/C (second compound 10 µM, first compound 0.316 µM): 28% | viability, T/C (second compound 10 µM, first compound 1 µM): 10.6%

CC1(C)CCC(Nc2ncc(C(F)(F)F)c(-c3c[nH]c4c(P(C)(C)=O)c(C#N)ccc34)n2)CN1 (centres undefined)
viability, T/C (compound 0.000949 µM): 105% [middle of 4 runs] | viability, T/C (compound 0.003 µM): 105% (2×) and 98.6% and 96.4% | viability, T/C (compound 0.00949 µM): 106% [middle of 4 runs] | viability, T/C (compound 0.03 µM): 107% (2×) and 109% and 99.9% | viability, T/C (compound 0.0949 µM): 94.4% [middle of 4 runs] | viability, T/C (compound 0.3 µM): 86.1% [middle of 4 runs] | IC50 (curve of compound): > 300 nM
